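Compound exposure: 48 hours, 5 concentrations, 96-well plates. TGI: concentration producing complete growth inhibition.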
How the values were obtained:
Experiment in all cases: NCI-60 cell line screen, 48 h
CCRF-CEM leukemia = system: CCRF-CEM leukemia
A549 NSCLC = system: A549 NSCLC
RXF 393 renal = system: RXF 393 renal
TK-10 renal = system: TK-10 renal
ACHN renal = system: ACHN renal
NCI-H23 lung = system: NCI-H23 lung
SK-OV-3 ovarian = system: SK-OV-3 ovarian
MOLT-4 leukemia = system: MOLT-4 leukemia
SK-MEL-28 melanoma = system: SK-MEL-28 melanoma
OVCAR-8 ovarian = system: OVCAR-8 ovarian
NCI-H460 lung = system: NCI-H460 lung
SW-620 colon = system: SW-620 colon
SF-268 CNS = system: SF-268 CNS
NCI-H226 lung = system: NCI-H226 lung
786-0 renal = system: 786-0 renal
NCI-H522 lung = system: NCI-H522 lung
MDA-MB-231 breast = system: MDA-MB-231 breast
MDA-MB-435 = system: MDA-MB-435
PC-3 prostate = system: PC-3 prostate

SMILES: COc1ccc2[nH]c3c(C)cc([N+](=O)[O-])c(C)c3c2c1
- TGI (CCRF-CEM leukemia): 56.4 µM
- TGI (A549 NSCLC): 75.3 µM
- TGI (RXF 393 renal): 41.9 µM
- TGI (TK-10 renal): 76.5 µM
- TGI (ACHN renal): 63.1 µM
- TGI (NCI-H23 lung): > 100 µM
- TGI (SK-OV-3 ovarian): 78.3 µM
- TGI (MOLT-4 leukemia): > 100 µM
- TGI (SK-MEL-28 melanoma): 92.2 µM
- TGI (OVCAR-8 ovarian): 79.9 µM
- TGI (NCI-H460 lung): 39.7 µM
- TGI (SW-620 colon): > 100 µM
- TGI (SF-268 CNS): > 100 µM
- TGI (NCI-H226 lung): > 100 µM
- TGI (786-0 renal): > 100 µM
- TGI (NCI-H522 lung): 43 µM

SMILES: O=c1[nH]c(=O)n(C2CC(O)C(CO)O2)cc1C#Cc1ccc(F)cc1 (stereo unspecified)
- TGI (CCRF-CEM leukemia): > 100 µM
- TGI (A549 NSCLC): > 100 µM
- TGI (ACHN renal): > 100 µM
- TGI (NCI-H23 lung): > 100 µM
- TGI (SK-OV-3 ovarian): > 100 µM
- TGI (MOLT-4 leukemia): > 100 µM
- TGI (SK-MEL-28 melanoma): > 100 µM
- TGI (OVCAR-8 ovarian): > 100 µM
- TGI (NCI-H460 lung): > 100 µM
- TGI (SW-620 colon): > 100 µM
- TGI (SF-268 CNS): > 100 µM
- TGI (NCI-H226 lung): > 100 µM
- TGI (786-0 renal): > 100 µM
- TGI (NCI-H522 lung): > 100 µM

SMILES: CCOC(=O)/C(=C/c1ccc(N(CCC#N)CCC#N)cc1C)NC(=O)/C=C/c1ccccc1
- TGI (CCRF-CEM leukemia): > 100 µM
- TGI (A549 NSCLC): > 100 µM
- TGI (RXF 393 renal): > 100 µM
- TGI (TK-10 renal): > 100 µM
- TGI (ACHN renal): > 100 µM
- TGI (NCI-H23 lung): > 100 µM
- TGI (SK-OV-3 ovarian): > 100 µM
- TGI (MOLT-4 leukemia): > 100 µM
- TGI (SK-MEL-28 melanoma): > 100 µM
- TGI (OVCAR-8 ovarian): > 100 µM
- TGI (NCI-H460 lung): > 100 µM
- TGI (SW-620 colon): > 100 µM
- TGI (SF-268 CNS): > 100 µM
- TGI (NCI-H226 lung): > 100 µM
- TGI (786-0 renal): > 100 µM
- TGI (NCI-H522 lung): > 100 µM

SMILES: CN(C)c1cccc2c1C(=O)C=CC21CCc2ccc(N(C)C)c3c(N(C)C)ccc1c23 (stereo unspecified)
- TGI (CCRF-CEM leukemia): 87.7 µM
- TGI (MDA-MB-231 breast): 31.2 µM
- TGI (A549 NSCLC): 42.3 µM
- TGI (RXF 393 renal): 20.8 µM
- TGI (TK-10 renal): 28.1 µM
- TGI (ACHN renal): 26.2 µM
- TGI (NCI-H23 lung): 37.4 µM
- TGI (SK-OV-3 ovarian): 27 µM
- TGI (MOLT-4 leukemia): 47 µM
- TGI (SK-MEL-28 melanoma): 30.4 µM
- TGI (OVCAR-8 ovarian): 53.2 µM
- TGI (NCI-H460 lung): 28.7 µM
- TGI (MDA-MB-435): 28.6 µM
- TGI (SW-620 colon): 35.6 µM
- TGI (SF-268 CNS): 33.8 µM
- TGI (NCI-H226 lung): 33 µM
- TGI (PC-3 prostate): 27.4 µM
- TGI (786-0 renal): 26.1 µM

SMILES: CCn1c2c(c3ccccc31)C(c1ccccc1)CC1C(=O)N(c3ccccc3)C(=O)C21 (stereo unspecified)
- TGI (CCRF-CEM leukemia): > 100 µM
- TGI (A549 NSCLC): > 100 µM
- TGI (TK-10 renal): > 100 µM
- TGI (ACHN renal): > 100 µM
- TGI (NCI-H23 lung): > 100 µM
- TGI (SK-OV-3 ovarian): > 100 µM
- TGI (MOLT-4 leukemia): > 100 µM
- TGI (SK-MEL-28 melanoma): > 100 µM
- TGI (OVCAR-8 ovarian): > 100 µM
- TGI (NCI-H460 lung): > 100 µM
- TGI (SW-620 colon): > 100 µM
- TGI (SF-268 CNS): > 100 µM
- TGI (NCI-H226 lung): > 100 µM
- TGI (786-0 renal): > 100 µM
- TGI (NCI-H522 lung): > 100 µM

SMILES: O=C(OC/C=C1C=C(OC(=O)c2ccccc2)/C(=N/N(C(=O)c2ccccc2)c2ccccc2)O\1)c1ccccc1
- TGI (CCRF-CEM leukemia): 2.1 µM
- TGI (A549 NSCLC): 22.6 µM
- TGI (RXF 393 renal): 5.58 µM
- TGI (TK-10 renal): 21.8 µM
- TGI (ACHN renal): 22.5 µM
- TGI (SK-OV-3 ovarian): 23.6 µM
- TGI (MOLT-4 leukemia): 14 µM
- TGI (OVCAR-8 ovarian): 23.6 µM
- TGI (NCI-H460 lung): 20 µM
- TGI (SW-620 colon): 22.5 µM
- TGI (SF-268 CNS): 6.85 µM
- TGI (NCI-H226 lung): 54.1 µM
- TGI (786-0 renal): 2.95 µM

SMILES: NCCCCCCNCc1cccc2ccccc12
- TGI (A549 NSCLC): > 100 µM
- TGI (RXF 393 renal): > 100 µM
- TGI (TK-10 renal): > 100 µM
- TGI (ACHN renal): > 100 µM
- TGI (NCI-H23 lung): > 100 µM
- TGI (SK-OV-3 ovarian): > 100 µM
- TGI (MOLT-4 leukemia): > 100 µM
- TGI (SK-MEL-28 melanoma): > 100 µM
- TGI (OVCAR-8 ovarian): > 100 µM
- TGI (NCI-H460 lung): > 100 µM
- TGI (SW-620 colon): > 100 µM
- TGI (NCI-H226 lung): > 100 µM
- TGI (786-0 renal): > 100 µM
- TGI (NCI-H522 lung): > 100 µM

SMILES: OC12c3ccccc3C3CCC4(OCCO4)C3C1c1ccccc12 (stereo unspecified)
- TGI (CCRF-CEM leukemia): > 100 µM
- TGI (A549 NSCLC): > 100 µM
- TGI (RXF 393 renal): > 100 µM
- TGI (TK-10 renal): > 100 µM
- TGI (ACHN renal): > 100 µM
- TGI (NCI-H23 lung): > 100 µM
- TGI (SK-OV-3 ovarian): > 100 µM
- TGI (MOLT-4 leukemia): > 100 µM
- TGI (SK-MEL-28 melanoma): > 100 µM
- TGI (OVCAR-8 ovarian): > 100 µM
- TGI (NCI-H460 lung): > 100 µM
- TGI (SW-620 colon): > 100 µM
- TGI (SF-268 CNS): > 100 µM
- TGI (NCI-H226 lung): > 100 µM
- TGI (786-0 renal): > 100 µM
- TGI (NCI-H522 lung): > 100 µM

SMILES: COc1ccc(C(=O)N/N=C/c2c(C)n(C)n(-c3ccccc3)c2=O)cc1
- TGI (CCRF-CEM leukemia): > 100 µM
- TGI (A549 NSCLC): > 100 µM
- TGI (RXF 393 renal): > 100 µM
- TGI (TK-10 renal): > 100 µM
- TGI (ACHN renal): > 100 µM
- TGI (NCI-H23 lung): > 100 µM
- TGI (SK-OV-3 ovarian): > 100 µM
- TGI (MOLT-4 leukemia): > 100 µM
- TGI (SK-MEL-28 melanoma): > 100 µM
- TGI (OVCAR-8 ovarian): > 100 µM
- TGI (NCI-H460 lung): > 100 µM
- TGI (SW-620 colon): > 100 µM
- TGI (SF-268 CNS): > 100 µM
- TGI (NCI-H226 lung): > 100 µM
- TGI (786-0 renal): > 100 µM
- TGI (NCI-H522 lung): > 100 µM

SMILES: CC(C)(C)OC(=O)c1cccnc1/C=N/O
- TGI (CCRF-CEM leukemia): > 100 µM
- TGI (A549 NSCLC): > 100 µM
- TGI (RXF 393 renal): > 100 µM
- TGI (TK-10 renal): > 100 µM
- TGI (ACHN renal): > 100 µM
- TGI (NCI-H23 lung): > 100 µM
- TGI (SK-OV-3 ovarian): > 100 µM
- TGI (MOLT-4 leukemia): > 100 µM
- TGI (SK-MEL-28 melanoma): > 100 µM
- TGI (OVCAR-8 ovarian): > 100 µM
- TGI (NCI-H460 lung): > 100 µM
- TGI (SW-620 colon): > 100 µM
- TGI (SF-268 CNS): > 100 µM
- TGI (NCI-H226 lung): > 100 µM
- TGI (786-0 renal): > 100 µM
- TGI (NCI-H522 lung): > 100 µM

SMILES: CC1NC(=O)C2=C1C(N)=NC(=O)C2 (stereo unspecified)
- TGI (A549 NSCLC): > 100 µM
- TGI (RXF 393 renal): > 100 µM
- TGI (TK-10 renal): > 100 µM
- TGI (ACHN renal): > 100 µM
- TGI (NCI-H23 lung): > 100 µM
- TGI (SK-OV-3 ovarian): > 100 µM
- TGI (MOLT-4 leukemia): > 100 µM
- TGI (SK-MEL-28 melanoma): > 100 µM
- TGI (OVCAR-8 ovarian): > 100 µM
- TGI (NCI-H460 lung): > 100 µM
- TGI (SW-620 colon): > 100 µM
- TGI (SF-268 CNS): > 100 µM
- TGI (NCI-H226 lung): > 100 µM
- TGI (786-0 renal): > 100 µM
- TGI (NCI-H522 lung): > 100 µM

SMILES: COC1CCC(=O)N1CN(C(C)=O)c1ccc(C)cc1 (stereo unspecified)
- TGI (MDA-MB-231 breast): > 100 µM
- TGI (A549 NSCLC): > 100 µM
- TGI (RXF 393 renal): > 100 µM
- TGI (TK-10 renal): > 100 µM
- TGI (ACHN renal): > 100 µM
- TGI (NCI-H23 lung): > 100 µM
- TGI (SK-OV-3 ovarian): > 100 µM
- TGI (MOLT-4 leukemia): > 100 µM
- TGI (SK-MEL-28 melanoma): > 100 µM
- TGI (OVCAR-8 ovarian): > 100 µM
- TGI (NCI-H460 lung): > 100 µM
- TGI (MDA-MB-435): > 100 µM
- TGI (SW-620 colon): > 100 µM
- TGI (SF-268 CNS): > 100 µM
- TGI (NCI-H226 lung): > 100 µM
- TGI (PC-3 prostate): > 100 µM
- TGI (786-0 renal): > 100 µM
